Data: article PMC10088926, “Synthesis, DFT calculations, and anti-proliferative evaluation of pyrimidine and selenadiazolopyrimidine derivatives as dual Topoisomerase II and HSP90 inhibitors” (Journal of Enzyme Inhibition and Medicinal Chemistry, 2023)
Entries after “also recorded” stand apart in the source; their conditions may differ. Like-named read-outs stand apart in the source and are kept apart here.

Tests used:
[1] = In vitro cytotoxicity against normal WI-38 cell line; details: human
Text: The viability assay (MTT method)[33] was used to evaluate the cytotoxic activity of the synthesised compounds against three mammalian tumour cell lines obtained from the VACSERA Tissue Culture Unit, namely MCF-7 cells (human breast cancer cell line), HepG-2 cells (human Hepatocellular carcinoma), and A-549 cells (lung carcinoma), as well as the normal WI-38 human cell line for both compounds 3a and 5d. […] 1% Crystal violet stain: it is composed of 0.5% (w/v) crystal violet and 50% methanol, which is then diluted to volume with ddH2O and filtered through a Whatman No.1 filter paper. Dulbecco’s modified Eagle’s medium (DMEM) supplemented with 10% heat-inactivated foetal bovine serum, 1% L-glutamine, HEPES buffer, and 50 μg/mL gentamycin was used to grow the cells. All cells were cultured twice a week and kept at 37 °C in a humidified atmosphere with 5% CO2. In 100 μL of the growth medium, the cells were seeded in a 96-well plate at a cell concentration of 1 × 10^4 cells per well. After 24 h of seeding, a fresh medium containing different concentrations of the test sample was added. A multichannel pipette was used to add serial two-fold dilutions of the tested chemical compound to confluent cell monolayers dispensed into 96-well, flat-bottomed microtiter plates (Falcon, NJ, USA). The microtiter plates were incubated for 24 h at 37 °C in a humidified incubator with 5% CO2. For each concentration of the test sample, three wells were used. […] Glacial acetic acid (30%) was thoroughly mixed into all wells, and the absorbance of the plates was measured. Background absorbance detected in wells without added stain was corrected for in all results. […] Each tested compound’s cytotoxic effect on cells was calculated. To determine the number of viable cells, the optical density was measured using a microplate reader (Sunrise, TECAN, Inc, USA), and the percentage of viability was calculated as [(ODt/ODc)] × 100%, where ODt is the mean optical density of wells treated with the tested sample and ODc is the mean optical density of untreated cells. […]

[2] = test system: HepG-2 cells (human Hepatocellular carcinoma); assay: In vitro cytotoxicity, viability assay (MTT method), HepG-2; type: cell-based; details: HepG2, 24 h incubation, triplicate, read-out: IC50 values (mean ± SD) HepG-2
Method: (§1) All experiments were conducted in triplicate.
(§2) Scaffold I compounds were characterised by the uracil core attached to the 5,5-dimethyl cyclohexanone moiety through an NH linker and bearing an amino group at position 6. The activity of such compounds could be attributed to the larger number of hydrogen bond donors when compared to compounds with scaffold II. On the other hand, the activity of 5d with scaffold II could be attributed to the nature of the substituent at N1 of the pyrimidine ring being a hydrophobic benzyl group that could be involved in hydrophobic interaction and π-π stacking. Generally, the isosteric substitution of oxo with thioxo at position 2 of the pyrimidine ring lowered the anti-proliferative activity in both scaffolds I and II compounds.

[3] = test system: A-549 cells (lung carcinoma); assay: In vitro cytotoxicity, viability assay (MTT method), A-549; type: cell-based; details: Homo sapiens, A549, 24 h incubation, triplicate, read-out: IC50 values (mean ± SD) A-549
Method: as §1, §2

[4] = test system: MCF-7 cells (human breast cancer cell line); assay: In vitro cytotoxicity, viability assay (MTT method), MCF-7; type: cell-based; details: MCF7, 24 h incubation, triplicate, read-out: IC50 values (mean ± SD) MCF-7
Method: as §1, §2

[5] = test system: MCF-7, HepG-2 and A-549 cells; assay: Anti-proliferative screening, classification over the three cell lines; type: cell-based; details: compared to methotrexate
Method: as §1, §2

Topoisomerase II = molecular target: T1, Topoisomerase II (Homo sapiens, UniProt P11388); assay: In vitro Topoisomerase II enzyme inhibition assay (plasmid-based kit); type: biochemical
T1 construct: purchased
Method: (§3) In vitro enzyme inhibitory assay of compounds 3a and 5d was performed against Topoisomerase-II enzyme using Topoisomerase II Assay Kit (plasmid-based)[34] and HSP90 enzyme using HSP90 (C-Terminal) Inhibitor Screening Assay Kit[35]. The procedure of the used kits was done according to the manufacturer’s instructions.
Topoisomerase II inhibitors can cause DNA damage and halt the cell cycle.

HSP90 = assay: In vitro HSP90 enzyme inhibition assay (HSP90 (C-Terminal) Inhibitor Screening Assay Kit); type: biochemical; details: read-out: HSP90 IC50 (mean ± SD)
Method: as §3
As reported, cancer cell growth and proliferation are inhibited when HSP90 is inhibited.

HepG-2 cells [6] = assay: Flow cytometric analysis of cell-cycle distribution (propidium iodide); type: cell-based, human
Method: Cell-cycle analysis was performed by DNA staining with propidium iodide (PI) following the manufacturer’s protocol (Abcam, USA)[36]. HepG-2 cells were cultured following the procedure till exponential growth was reached. After removing the culture media, the cells were rinsed with phosphate buffer. Cells were then treated with 3a and suspended in 66% ethanol on the ice at 4 °C. Then, PI was added together with the RNase staining solution. Incubation was allowed for 20–30 min at 37 °C in the dark. For the preparation of flow cytometry, fixed cells were placed on ice. Podium iodide fluorescence was collected using 488 nm laser illumination.
Thus, it was studied further to determine the mechanism of its cell growth inhibition. The standard PI flow cytometry assay was used to investigate cell cycle distribution and apoptosis induction in HepG-2 cells. […] 3a halts the cell cycle of HepG-2 at the G1-S phase.

HepG-2 cells [7] = assay: Cellular apoptosis analysis (Annexin V-FITC/PI); type: cell-based, human; details: HepG-2, 14.31 μM, 24 h; untreated cells 0.58%
Method: Annexin V is a protein that has a high affinity to bind to membrane phosphatidylserine (PS) translocated from the inner cellular plasma membrane to the cell surface after apoptosis initiation following the manufacturer protocol (Biovision, USA)[37]. HepG-2 cells in exponential growth were treated with compound 3a and incubated for 24 h. Then, 1–5 × 10^5 were collected via centrifugation and suspended in 500 µL of 1X Binding Buffer, 5 µL of Annexin V-FITC, and 5 µL of propidium iodide were added and allowed to incubate in the dark for 5 min, then Annexin V-FITC binding was quantified by flow cytometry using emission signal detector at 530 nm.
Using HepG-2 cells and the Annexin FITC/PI dual-labelling technique, 3a-induced apoptosis was investigated.

caspase-3 gene = caspase-3 gene expression (RT-PCR) in HepG-2; type: cell-based, human; details: HepG-2, compared to control cells
Method: (§4) The level of Topoisomerase II, HSP90, and caspase-3 gene expression were assessed using Bio-Rad RT-PCR Kit following the manufacturer’s instructions. HepG-2 cells were exponentially grown and then treated with 3a after treatment with DNA polymerase and fluorescein. The expression of Topoisomerase II, HSP90, and caspase-3 genes was measured fluorometrically.
(§5) A caspase family is a group of cysteine proteases that activates apoptosis through receptor or mitochondrial-dependent cell death. Caspase-3 activation catalyses the cleavage of key cellular proteins, leading to both mitochondrial-dependent and non-dependent cell death. Caspase-3 is also associated with cell rupture and the formation of apoptotic bodies. The effect of 3a on caspase-3 gene expression was studied in HepG-2 cell lines. […] The gene that encodes DNA Topoisomerase II controls the topology of […] during DNA transcription. This gene is a target for anti-proliferative agents by altering enzyme activity. In the present work, the effect of 3a on the expression of the gene encoding Topoisomerase II in the supernatant of HepG-2 cell lines was studied. […] Furthermore, the HSP90 encoding gene interferes with the proper folding of specified protein targets and interferes with ATP binding.

[8] = test system: gene encoding Topoisomerase II; assay: Topoisomerase II gene expression (RT-PCR) in HepG-2; type: cell-based, human; details: supernatant of HepG-2 cell lines, compared to control cells
Method: as §4, §5

gene encoding HSP90 = assay: HSP90 gene expression (RT-PCR) in HepG-2; type: cell-based, human; details: supernatant of HepG-2 cell lines, compared to control cells
Method: as §4, §5

T1 sequence (P11388 whole entry): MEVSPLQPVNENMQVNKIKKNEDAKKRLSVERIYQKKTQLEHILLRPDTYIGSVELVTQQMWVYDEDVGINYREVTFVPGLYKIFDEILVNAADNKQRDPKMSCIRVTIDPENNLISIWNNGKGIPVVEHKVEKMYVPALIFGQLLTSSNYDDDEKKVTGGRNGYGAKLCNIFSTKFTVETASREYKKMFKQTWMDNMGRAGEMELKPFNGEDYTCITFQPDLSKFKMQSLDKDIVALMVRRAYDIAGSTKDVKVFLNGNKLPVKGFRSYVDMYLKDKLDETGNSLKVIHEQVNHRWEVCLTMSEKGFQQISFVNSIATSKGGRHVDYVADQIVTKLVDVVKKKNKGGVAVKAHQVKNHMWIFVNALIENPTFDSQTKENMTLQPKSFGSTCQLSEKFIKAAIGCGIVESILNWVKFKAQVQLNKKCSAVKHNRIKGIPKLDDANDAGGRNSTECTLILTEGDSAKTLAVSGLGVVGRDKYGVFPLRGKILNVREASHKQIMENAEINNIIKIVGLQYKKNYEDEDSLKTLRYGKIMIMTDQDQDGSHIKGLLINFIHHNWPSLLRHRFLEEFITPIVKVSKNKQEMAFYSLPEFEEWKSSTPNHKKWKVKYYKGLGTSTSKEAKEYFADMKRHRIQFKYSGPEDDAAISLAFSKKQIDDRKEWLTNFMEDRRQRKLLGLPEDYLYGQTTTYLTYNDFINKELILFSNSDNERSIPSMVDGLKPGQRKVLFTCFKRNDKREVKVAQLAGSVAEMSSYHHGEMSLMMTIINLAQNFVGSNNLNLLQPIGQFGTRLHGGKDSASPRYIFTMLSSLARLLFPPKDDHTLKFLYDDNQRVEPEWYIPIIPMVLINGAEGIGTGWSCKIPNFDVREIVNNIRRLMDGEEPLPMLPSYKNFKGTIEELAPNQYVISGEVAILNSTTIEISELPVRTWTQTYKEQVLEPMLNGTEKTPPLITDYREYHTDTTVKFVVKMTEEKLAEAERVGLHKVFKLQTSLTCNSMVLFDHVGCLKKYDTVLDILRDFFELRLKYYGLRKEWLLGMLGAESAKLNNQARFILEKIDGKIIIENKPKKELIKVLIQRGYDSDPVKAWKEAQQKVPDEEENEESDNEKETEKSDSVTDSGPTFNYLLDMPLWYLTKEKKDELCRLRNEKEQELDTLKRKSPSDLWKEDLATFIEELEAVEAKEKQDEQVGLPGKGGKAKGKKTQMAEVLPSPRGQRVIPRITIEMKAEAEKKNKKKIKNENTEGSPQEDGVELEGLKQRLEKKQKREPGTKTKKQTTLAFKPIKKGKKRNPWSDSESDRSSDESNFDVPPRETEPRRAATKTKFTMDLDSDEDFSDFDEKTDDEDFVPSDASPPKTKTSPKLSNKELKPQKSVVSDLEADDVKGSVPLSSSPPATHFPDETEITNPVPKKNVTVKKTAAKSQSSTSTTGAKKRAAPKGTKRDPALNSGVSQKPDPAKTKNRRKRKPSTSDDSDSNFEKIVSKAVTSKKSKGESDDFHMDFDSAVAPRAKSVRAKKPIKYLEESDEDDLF

SMILES	IC50 [2]	IC50 [3]	IC50 [4]	anti-proliferative activity category [5]	melting point	other results
COc1cccc2c1C(=O)c1c(O)c3c(c(O)c1C2=O)C[C@@](O)(C(=O)CO)C[C@@H]3O[C@H]1C[C@H](N)[C@H](O)[C@H](C)O1 [Doxorubicin, reference compound]	–	–	–	–	–	IC50 at 24 h [1]: 19.6 ± 0.74 µM
CCn1c(N)c(NC2=CC(=O)CC(C)(C)C2)c(=O)[nH]c1=O [Compound 3d, 6-Amino-5-((5,5-dimethyl-3-oxocyclohex-1-en-1-yl)amino)-1-ethylpyrimidine-2,4(1H,3H)-dione]	21.6 ± 0.76 µM	33.3 ± 0.99 µM	31.4 ± 1.39 µM	moderate to high	> 300 °C	–
CCn1c(=O)[nH]c(=O)c2n[se]nc21 [Compound 5c, 4-Ethyl-[1,2, 5]selenadiazolo[3,4-d]pyrimidine-5,7(4H,6H)-dione]	33.4 ± 1.09 µM	42.5 ± 1.19 µM	39.7 ± 1.32 µM	–	> 300 °C	–
CN(Cc1cnc2nc(N)nc(N)c2n1)c1ccc(C(=O)N[C@@H](CCC(=O)O)C(=O)O)cc1 [Methotrexate, reference compound]	21.9 ± 1.08 µM	34.5 ± 2.19 µM	29.5 ± 2.19 µM	–	–	–
O=c1[nH]c(=O)c2n[se]nc2[nH]1 [Compound 5a, [1,2, 5]selenadiazolo[3,4-d]pyrimidine-5,7(4H,6H)-dione]	51.7 ± 2.09 µM	58 ± 2.13 µM	51.9 ± 1.48 µM	low to moderate	> 300 °C	–
O=c1[nH]c(=O)n(Cc2ccccc2)c2n[se]nc12 [Compound 5d, 4-Benzyl-[1,2, 5]selenadiazolo[3,4-d]pyrimidine-5,7(4H,6H)-dione]	17.7 ± 0.81 µM	26.8 ± 0.89 µM	29.3 ± 0.86 µM	moderate to high	260 to 261 °C	IC50 (Topoisomerase II): 8.39 ± 1.07 µM; IC50 (HSP90): 7.69 ± 0.46 µM; IC50 at 24 h [1]: 54.6 ± 2.05 µM
Cn1c(=O)[nH]c(=O)c2n[se]nc21 [Compound 5e, 4-Methyl-[1,2, 5]selenadiazolo[3,4-d]pyrimidine-5,7(4H,6H)-dione]	> 100 µM	> 100 µM	> 100 µM	low	> 300 °C	–
CC1(C)CC(=O)C=C(Nc2c(N)n(Cc3ccccc3)c(=O)[nH]c2=O)C1 [Compound 3e, 6-Amino-1-benzyl-5-((5,5-dimethyl-3-oxocyclohex-1-en-1-yl)amino)pyrimidine-2,4(1H,3H)-dione]	47.6 ± 1.39 µM	44 ± 1.28 µM	> 100 µM	low to moderate	292 to 294 °C	–
Cn1c(N)c(NC2=CC(=O)CC(C)(C)C2)c(=O)[nH]c1=S [Compound 3c, 6-Amino-5-((5,5-dimethyl-3-oxocyclohex-1-en-1-yl)amino)-1-methyl-2-thioxo-2,3-dihydropyrimidin-4(1H)-one]	> 100 µM	> 100 µM	> 100 µM	low	> 300 °C	–
Nc1c(N=[Se]=O)c(=O)[nH]c(=O)n1Cc1ccccc1Cl	–	–	–	–	> 300 °C	–
Cn1c(=S)[nH]c(=O)c2n[se]nc21 [Compound 5b, 4-Methyl-5-thioxo-5,6-dihydro-[1,2,5]selenadiazolo[3,4-d]pyrimidin-7(4H)-one]	57.9 ± 2.43 µM	68.7 ± 3.86 µM	98.1 ± 3.45 µM	low to moderate	> 300 °C	–
O=c1[nH]cc(F)c(=O)[nH]1 [5-Fluorouracil, reference compound]	7.37 ± 0.29 µM	12.3 ± 0.53 µM	10.1 ± 0.44 µM	–	–	–
CC1(C)CC(=O)C=C(Nc2c(N)[nH]c(=O)[nH]c2=O)C1 [Compound 3a, 6-Amino-5-((5,5-dimethyl-3-oxocyclohex-1-en-1-yl)amino)pyrimidine-2,4(1H,3H)-dione]	14.3 ± 0.83 µM	30.7 ± 0.76 µM	27.1 ± 1.91 µM	moderate to high	–	IC50 (Topoisomerase II; in vitro enzyme assay, read-out: Topoisomerase II IC50 (mean ± SD)): 4.48 ± 0.65 µM; IC50 (HSP90): 1.78 ± 0.11 µM; phase at which the cell cycle is halted (HepG-2 cells [6]; HepG-2): G1-S phase; %DIP G1 (cells in the G1-S phase) (HepG-2 cells [6]; HepG-2, 14.31 μM, untreated cells 43.82% (±2.61)): 51.46%; total apoptotic cells (HepG-2 cells [7]): 37.93%; caspase-3 gene expression (caspase-3 gene): upregulating; also recorded: increased; also recorded: upregulated; Topoisomerase II gene expression [8]: downregulating; also recorded: downregulate; HSP90 gene expression (gene encoding HSP90): downregulating; also recorded: downregulated; IC50 at 24 h [1]: 80.8 ± 3.04 µM
CC1(C)CC(=O)C=C(Nc2c(N)n(Cc3ccccc3Cl)c(=O)[nH]c2=O)C1 [Compound 3b, 6-Amino-1-(2-chlorobenzyl)-5-((5,5-dimethyl-3-oxocyclohex-1-en-1-yl)amino)pyrimidine-2,4(1H,3H)-dione]	40.4 ± 1.25 µM	36.4 ± 1.09 µM	46.1 ± 1.63 µM	low to moderate	294 to 296 °C	–
Cn1c(=O)c2n[se]nc2n(C)c1=O [Compound 7, 4,6-Dimethyl-[1,2, 5]selenadiazolo[3,4-d]pyrimidine-5,7(4H,6H)-dione]	> 100 µM	> 100 µM	> 100 µM	low	278 to 280 °C	–
Cn1c(N)c(NC2=CC(=O)CC(C)(C)C2)c(=O)[nH]c1=O [Compound 3f, 6-Amino-5-((5,5-dimethyl-3-oxocyclohex-1-en-1-yl)amino)-1-methylpyrimidine-2,4(1H,3H)-dione]	> 100 µM	> 100 µM	> 100 µM	low	> 300 °C	–
